“And” between values parts separate entries of the source, which are not always exact repeats. Equal entries are not always repeated. “Also recorded” adds a separate entry of the source.
How the values were obtained:
HRas^G12V [1] = target: T1, HRas^G12V (Homo sapiens (Human), UniProt P01112, G12V); test: 19F DLB (ligand-observed 19F NMR) score; type: binding; design: scale not given here
How it was run: (§1)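 Fragments were pooled at 240 μM each with 50 μM HRas G12V in 25 mM sodium phosphate pH 7.4, 150 mM NaCl, 5 mM MgCl2, 1 mM TCEP-d16, 10% D2O, and screened by 1H-decoupled 1D 19F NMR at 600 MHz (64 scans, 5 s relaxation delay). T2-CPMG data were collected with 1 ms echoes and eight delays from 1 to 800 ms.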

KRAS^G12D-GDP = KRAS^G12D-GDP (Homo sapiens (Human), UniProt P01116, G12D); test: 19F DLB score, KRAS^G12D-GDP; type: binding; design: scale not given here
Chain of KRAS^G12D-GDP (P01116-2 other isoform, or with tags, fused parts or gaps G12D): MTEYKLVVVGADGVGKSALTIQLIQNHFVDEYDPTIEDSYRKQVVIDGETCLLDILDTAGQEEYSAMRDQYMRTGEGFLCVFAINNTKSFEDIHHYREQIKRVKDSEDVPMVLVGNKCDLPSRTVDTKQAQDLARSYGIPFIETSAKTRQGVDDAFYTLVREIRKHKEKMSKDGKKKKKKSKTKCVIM
Procedure: Since the fragment library was curated using phosphate buffer, 25 mM sodium phosphate pH 7.4, 150 mM NaCl, 5 mM MgCl2, 1 mM TCEP-d16, 10% D2O Fresh TCEP was used for experiments. Screening was performed using ^1H-decoupled 1D ^19F experiment Bruker experiment (zgfhigqn.2) with 64 scans and a relaxation delay of 5 seconds. 50 μM HRas^G12V and 240 μM of each fragment in pools (mixtures) were used.
Hit confirmation was performed using the same ^19F experiment as the screen. Ligand-observed 1D ^1H, protein-observed 1D ^1H, ^1H T2-CPMG as well as Saturation Transfer Difference (STD) experiments were also run on the same samples. Ligand-observed 1D ^1H was run using the standard Bruker sequence with excitation sculpting (zgesgp) with a relaxation delay of 10 seconds and 16 scans per spectrum. Protein-observed 1D ^1H was performed using the same sequence with a relaxation delay of 1 second and 256 scans in order to increase the signal-to-noise of the protein resonances, while keeping the experimental time relatively short. The ^1H T2-CPMG experiment employed a modified version of the Bruker 1D ^1H zgesgp experiment with the addition of a CPMG pulse train after the first 90° excitation pulse. Total duration for each spin echo was fixed at 1 ms (τ=500 μs), while the number of echoes in the pulse train was varied according to the total time (T). The number of scans for each spectrum was 4 and eight delay times were run on each sample, ranging from 1 ms to 800 ms.
The activity of compounds of the invention regarding KRAS^G12D-GDP was measured in the same as in Example 80. The results obtained with the compounds in the various assays described above are depicted in Table 23.

HRas^G12V [2] = target: T1, HRas^G12V; test: Overall binding/activity in the various assays (NMR consensus binding)
How it was run: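 Fragments (240 µM each, pooled) screened against 50 µM HRas^G12V in 25 mM sodium phosphate pH 7.4, 150 mM NaCl, 5 mM MgCl2, 1 mM TCEP-d16 by 1H-decoupled 1D 19F NMR. Hits confirmed by ligand- and protein-observed 1D 1H, STD and T2-CPMG (aggregation check); consensus binding ranked, with 15N HSQC for sites and Kd.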

HRas^G12V [3] = target: T1, HRas^G12V; test: 19F T2-CPMG NMR score; type: binding
How it was run: as §1

## CN(C)CC(=O)Nc1cccc(NC(=O)Cc2c[nH]c3cc(F)ccc23)c1 [compound 10097]
HRas^G12V [1]
  19F DLB Score: 3.84
KRAS^G12D-GDP
  19F DLB Score: 4.36
HRas^G12V [2]
  Activity ranking on HRas^G12V (in words): More active; also recorded: Most active
HRas^G12V [3]
  19F T2-CPMG Score: 38.49

## O=C(Cc1c[nH]c2cc(F)ccc12)N1CCC(O)CC1 [Compound 10086]
HRas^G12V [1]
  19F DLB Score: 3.04
KRAS^G12D-GDP
  19F DLB Score: 3.33
HRas^G12V [2]
  Activity ranking on HRas^G12V (in words): More active
HRas^G12V [3]
  19F T2-CPMG Score: 32.13

## CN(C)CCOc1cccc(NC(=O)Cc2c[nH]c3cc(F)ccc23)c1 [Compound 10095, N-(3-(2-(dimethylamino)ethoxy)phenyl)-2-(6-fluoro-1H-indol-3-yl)acetamide]
HRas^G12V [1]
  19F DLB Score: 4.19
KRAS^G12D-GDP
  19F DLB Score: 3.56
HRas^G12V [2]
  Activity ranking on HRas^G12V (in words): More active; also recorded: Most active
HRas^G12V [3]
  19F T2-CPMG Score: 33.38

## CC(C)N1CCC(NC(=O)Cc2c[nH]c3cc(F)ccc23)CC1 [Compound 10018]
HRas^G12V [1]
  19F DLB Score: 1.64 and 1.79 and 1.93 and 1.86 and 1.71
KRAS^G12D-GDP
  19F DLB Score: 1.73
HRas^G12V [2]
  Activity ranking on HRas^G12V (in words): More active
HRas^G12V [3]
  19F T2-CPMG Score: 10.62 and 11.88 and 18.24 and 9.37 and 15.13

Reference: patent publication US20240408064A1, “RAS INHIBITORS, COMPOSITIONS AND METHODS OF USE THEREOF” (GENETOLEAD INC., priority 2021, published 2024)
